Data taken from paper PMC3808368 (2013).

What was measured:
[1] = test system: ATP aptamer (ATP aptamer G-quadruplex) (DNA, aptamer) AACCTGGGGGAGTATTGCGGAGGAAGGT; assay: G4-FID, thiazole orange displacement; settings: 100 mM KCl; 50 mM Tris-HCl pH 7.0; 0.25 µM DNA; 0.5 µM thiazole orange displaced
[2] = test system: ssDNA (DNA, single strand) GAAATTCTTAAGTGCGATCGAG; assay: luminescence enhancement of complex 2; settings: 50 mM KCl; 20-25 mM Tris-HCl pH 7.0; 1 µM complex, 5 µM DNA; minimal luminescence change
[3] = test system: HTS (DNA, G4) TTAGGGTTAGGGTTAGGGTTAGGG; assay: luminescence enhancement of complex 2; settings: 50 mM KCl; 20-25 mM Tris-HCl pH 7.0; 1 µM complex, 5 µM DNA; up to 8-fold enhancement
[4] = test system: ATP aptamer duplex (ATP aptamer + complementary strand) (DNA, duplex) AACCTGGGGGAGTATTGCGGAGGAAGGT/ACCTTCCTCCGCAATACTCCCCCAGGTT; assay: luminescence enhancement of complex 2; settings: none added; 20 mM Tris-HCl pH 7.3, 25°C; slightly emissive without ATP
[5] = test system: H21 (DNA, G4) GGGTTAGGGTTAGGGTTAGGG; assay: luminescence enhancement of complex 2; settings: 50 mM KCl; 20-25 mM Tris-HCl pH 7.0; 1 µM complex, 5 µM DNA; up to 8-fold enhancement
[6] = test system: ATP aptamer (ATP aptamer G-quadruplex) (DNA, aptamer) AACCTGGGGGAGTATTGCGGAGGAAGGT; assay: fluorescence, tracer in G4-FID; settings: 100 mM KCl, 50 mM Tris-HCl pH 7.0, 0.25 µM DNA, 0.5 µM thiazole orange

Structure (SMILES)	G4DC50 [1] [µM]	binding [2]	binding [3]	binding [4]	binding [5]	binding [6]
[Ir+3].[c-]1ccccc1-c1nccc2ccccc12.[c-]1ccccc1-c1nccc2ccccc12.c1ccc2nc(-c3ccc4ccccc4n3)ccc2c1	5	no	yes	weak	yes	
[Ir+3].[c-]1ccccc1-c1ccccn1.[c-]1ccccc1-c1ccccn1.c1ccc2nc(-c3ccc4ccccc4n3)ccc2c1	> 6					
CN1C(=Cc2cc[n+](C)c3ccccc23)Sc2ccccc21						yes
